Like-named read-outs stand apart in the source and are kept apart here.
Tests used:
Type in all cases: binding
[1] = molecular target: T1, HLA-A*24:02 (Homo sapiens, UniProt P04439, D101N/D140Y/D185E/E176V/E190D/F33S/G103R/G107R/I119L/I121M/I306V/K335N/L105A/L180Q/L300P/N151K/N90K/Q86E/Q94H/R106L/R138H/R89G/T104I/T345S/V100E/W191G/Y123F)
[2] = molecular target: HLA-B*07:02 (Homo sapiens, UniProt P01889); conditions: percent relative the binding of positive control peptide […]; duplicated experiments; positive binder >40%
[3] = molecular target: T2, HLA-A*30:02 (Homo sapiens, UniProt P04439, D101N/D140H/D185E/E176R/F33S/G80R/H175R/K168Q/Q94H/R138E/R41S/V100E); conditions: duplicated experiments, positive binder >40%
[4] = molecular target: T3, HLA-A*68:01 (Homo sapiens, UniProt P04439, A269V/D185E/E176V/E277Q/E87N/F33Y/G231S/I121M/I166T/I218V/L180W/L300P/L318F/N151K/P208A/P217A/Q86R/R169H/T345S); conditions: duplicated experiments, positive binder >40%
[5] = molecular target: HLA-C*07:01 (Homo sapiens, UniProt P10321, K90N/S123Y); conditions: duplicated experiments, positive binder >40%
[6] = molecular target: T4, HLA-A*02:01 (Homo sapiens, UniProt P04439, D140Y/D185E/D98H/E176V/E277Q/G131W/G231S/I119V/I121R/I166T/I218V/L300P/L318F/N151K/N90K/P208A/P217A/Q86G/Q94H/R138H/R169H/T345S)
[7] = molecular target: HLA-A*30:01 (Homo sapiens, UniProt P04439, D140H/D185E/E176W/F33S/G80R/H175R/K168Q/R138E/R41S); conditions: duplicated experiments, positive binder >40%
[8] = molecular target: T1, HLA-A*24:02; conditions: time points 0-8 h
[9] = molecular target: T5, HLA-B*58:01 (Homo sapiens, UniProt P01889, A329T/C349S/D201E/D98Y/E176V/E187L/E204Q/E69T/G107R/I218V/I90N/K202T/L105A/L119I/N104I/N87E/Q89R/Q94S/R106L/R155S/R180L/R86G/S101N/S121R/S35A/S48A/T118I/V127L/V306I/V36M/Y140S/Y91M); conditions: duplicated experiments, positive binder >40%
[10] = molecular target: T1, HLA-A*24:02; conditions: duplicated experiments, positive binder >40%
[11] = molecular target: T4, HLA-A*02:01; conditions: peptide quantity for 50% binding saturation
[12] = molecular target: T2, HLA-A*30:02
[13] = molecular target: T2, HLA-A*30:02; conditions: time points 0-8 h
[14] = molecular target: T4, HLA-A*02:01; conditions: time points 0-8 h; time when 50% of peptide has dissociated
[15] = molecular target: T5, HLA-B*58:01
[16] = molecular target: T5, HLA-B*58:01; conditions: time points 0-8 h
[17] = molecular target: T3, HLA-A*68:01; conditions: time points 0-8 h
[18] = molecular target: T3, HLA-A*68:01
[19] = peptide titrated 10−4 to 10−9 M
[20] = percent relative the binding of positive control peptide KIQNFRVYY
[21] = percent relative the binding of positive control peptide KTGGPIYKR
[22] = percent relative the binding of positive control peptide KYFDEHYEY
[23] = percent relative the binding of positive control peptide FLPSDFFPSV, plate-bound monomer 0.5 µg/ml, duplicated experiments, positive binder >40%
[24] = percent relative the binding of positive control peptide KTKDIVNGL
[25] = percent relative the binding of positive control peptide IAMESIVIW
[26] = percent relative the binding of positive control peptide RYLKDQQLL
[27] = percent relative the binding of positive control peptide […]
[28] = percent relative the binding of positive control peptide […], plate-bound monomer 0.5 µg/ml, duplicated experiments, positive binder >40%

Substance | Bind B*07:02 [2] [%] | O-rate A*24:02 (t1/2) [8] [min] | Aff A*24:02 (ED50) [1] | Bind A*30:02 [3, 27] [%] | Bind A*24:02 [10, 27] [%] | O-rate A*30:02 (t1/2) [13] [min] | Bind A*68:01 [4, 27] [%] | Bind C*07:01 [5, 27] [%] | Bind A*02:01 [6, 28] [%] | Bind A*30:01 [7, 27] [%] | Bind B*58:01 [9, 27] [%] | further results
AYQGVQQKW [Rv3875_50–58] | 10 | 24 |  |  |  |  |  |  |  |  |  | Aff A*24:02 (ED50) [1, 19]: 1e-08 M; Bind A*30:02 [3, 20]: 33%; Bind A*68:01 [4, 21]: 6%; Bind C*07:01 [5, 22]: 0%; Bind A*02:01 [6, 23]: 0%; Bind A*30:01 [7, 24]: 0%; Bind B*58:01 [9, 25]: 35%; Bind A*24:02 [10, 26]: 60%
MYNYPTMLD [Rv0288_5–13m3] |  | 30 | 2e-08 M | 0 | 76 |  |  |  |  |  |  | 
AMASTEGNV [Rv3875_82–90] | 11 |  |  |  |  | 150 |  |  |  |  |  | Aff A*02:01 (ED50) [11, 19]: 3e-08 M; Aff A*30:02 (ED50) [12, 19]: 7e-09 M; Bind A*30:02 [3, 20]: 102%; Bind A*68:01 [4, 21]: 0%; Bind C*07:01 [5, 22]: 3%; Bind A*02:01 [6, 23]: 87%; Bind A*30:01 [7, 24]: 0%; O-rate A*02:01 (t1/2) [14]: 60 min; Bind B*58:01 [9, 25]: 0%; Bind A*24:02 [10, 26]: 0%
SGSEAYQGV [Rv3875_46–54] | 9 | 30 |  |  |  |  |  |  |  |  |  | Aff A*24:02 (ED50) [1, 19]: 9e-09 M; Bind A*30:02 [3, 20]: 0%; Bind A*68:01 [4, 21]: 0%; Bind C*07:01 [5, 22]: 24%; Bind A*02:01 [6, 23]: 22%; Bind A*30:01 [7, 24]: 0%; Bind B*58:01 [9, 25]: 2%; Bind A*24:02 [10, 26]: 54%
GWDINTPAF | 22 | 66 | 1E -07 M | 0 | 146 |  | 5 | 10 | 0 | 11 | 0 | 
SMAGSSAMI | 14 | 24 | 2E -07 M | 45 | 52 | 78 | 0 | 0 |  | 0 | 95 | Aff B*58:01 (ED50) [15]: 2E -07 M; Aff A*30:02 (ED50) [12]: 9e-08 M; Bind A*02:01 [6]: 81; O-rate B*58:01 (t1/2) [16]: 96 min
TYKW ETFLT | 3 | 30 | 2e-06 M | 13 | 118 |  | 4 | 0 | 36 | 0 | 0 | 
MYNYPTMLG [Rv0288_5–13m1] |  | 30 | 2e-07 M | 23 | 47 |  |  |  |  |  |  | 
GYAGTLQNL [Rv0288_20–28m1] |  | 18 | 1e-07 M |  | 68 |  |  |  |  |  |  | 
KAGCQTYKW | 9 | 114 | 7E -08 M | 45 | 140 |  | 25 | 31 | 22 | 13 | 193 | Aff B*58:01 (ED50) [15]: 3E -08 M; O-rate B*58:01 (t1/2) [16]: 480 min
YWGAQLNAM | 12 | 30 | 8e-09 M | 63 | 113 |  | 16 | 0 | 11 | 0 | 0 | 
GT HSWEYWG | 3 |  |  | 79 | 2 | 132 | 71 | 25 | 43 | 0 | 58 | Aff B*58:01 (ED50) [15]: 3e-07 M; Aff A*02:01 (ED50) ([11]; […]): 2E -06 M; Aff A*30:02 (ED50) [12]: 3e-05 M; O-rate B*58:01 (t1/2) [16]: 174 min; O-rate A*02:01 (t1/2) [14]: 18 min; O-rate A*68:01 (t1/2) [17]: 12 min; Aff A*68:01 (ED50) [18]: 1E -05 M
QWLSANRAV | 25 | 24 | 2e-06 M | 120 | 110 | 72 | 13 | 11 | 21 | 39 | 0 | Aff A*30:02 (ED50) [12]: 7E -08 M
MYNYPAMLD [Rv0288_5–13m2] |  | 24 | 3e-08 M | 59 | 60 | 42 |  |  |  |  |  | Aff A*30:02 (ED50) [12]: 2e-06 M
